Assay results published in the NIST ThermoML archive (doi:10.1021/je100765j).

Assay: refractive index (Na D-line) (dimensionless); xn = mol fraction of the nth substance listed
Conditions: 101 kPa, Liquid, Standard Abbe refractometry

CCC(C)Cl (centres undefined) [2-chlorobutane] + CC(C)OC(C)C
refractive index
Conditions | 283.15 K | 288.15 K | 293.15 K | 298.15 K | 303.15 K | 308.15 K | 313.15 K
x1 = 0.0519 | 1.37477 | 1.37203 | 1.36931 | 1.36644 | 1.36361 | 1.36077 | 1.35788
x1 = 0.0988 | 1.37587 | 1.37314 | 1.37041 | 1.36756 | 1.36473 | 1.36189 | 1.359
x1 = 0.2006 | 1.37839 | 1.37566 | 1.37294 | 1.37009 | 1.36727 | 1.36443 | 1.36155
x1 = 0.3211 | 1.38155 | 1.37883 | 1.3761 | 1.37326 | 1.37044 | 1.3676 | 1.36473
x1 = 0.4201 | 1.38427 | 1.38154 | 1.37882 | 1.37599 | 1.37317 | 1.37033 | 1.36746
x1 = 0.532 | 1.38745 | 1.38472 | 1.38199 | 1.37917 | 1.37636 | 1.37353 | 1.37067
x1 = 0.6244 | 1.39016 | 1.38743 | 1.3847 | 1.38189 | 1.37908 | 1.37626 | 1.3734
x1 = 0.726 | 1.39324 | 1.39051 | 1.38778 | 1.38498 | 1.38218 | 1.37936 | 1.37651
x1 = 0.8163 | 1.39608 | 1.39336 | 1.39063 | 1.38784 | 1.38505 | 1.38224 | 1.3794
x1 = 0.8817 | 1.39819 | 1.39548 | 1.39275 | 1.38997 | 1.38719 | 1.38438 | 1.38154
x1 = 0.9634 | 1.40097 | 1.39825 | 1.39552 | 1.39276 | 1.38997 | 1.38716 | 1.38434

CC(C)(C)Cl [2-chloro-2-methylpropane] + CC(C)OC(C)C
refractive index
Conditions | 283.15 K | 288.15 K | 293.15 K | 298.15 K | 303.15 K | 308.15 K | 313.15 K
x1 = 0.049 | 1.37426 | 1.37152 | 1.36878 | 1.36591 | 1.36307 | 1.36021 | 1.35731
x1 = 0.0996 | 1.37498 | 1.37223 | 1.36948 | 1.36661 | 1.36376 | 1.36089 | 1.35799
x1 = 0.1991 | 1.37645 | 1.37368 | 1.37091 | 1.36803 | 1.36516 | 1.36228 | 1.35936
x1 = 0.3212 | 1.37834 | 1.37555 | 1.37275 | 1.36986 | 1.36697 | 1.36407 | 1.36114
x1 = 0.4189 | 1.37994 | 1.37712 | 1.37431 | 1.3714 | 1.3685 | 1.36559 | 1.36263
x1 = 0.5148 | 1.38157 | 1.37874 | 1.3759 | 1.37299 | 1.37006 | 1.36713 | 1.36416
x1 = 0.6213 | 1.38348 | 1.38063 | 1.37775 | 1.37483 | 1.37189 | 1.36894 | 1.36595
x1 = 0.7152 | 1.38524 | 1.38237 | 1.37947 | 1.37654 | 1.37357 | 1.37061 | 1.3676
x1 = 0.8138 | 1.38719 | 1.3843 | 1.38137 | 1.37843 | 1.37543 | 1.37245 | 1.36942
x1 = 0.9079 | 1.38915 | 1.38623 | 1.38327 | 1.38031 | 1.3773 | 1.3743 | 1.37125
x1 = 0.9552 | 1.39016 | 1.38723 | 1.38426 | 1.3813 | 1.37827 | 1.37526 | 1.3722
